In US20080031866A1, “METHOD FOR MODULATING THE PHARMACOKINETICS AND METABOLISM OF A THERAPEUTIC AGENT” (priority 2006, published 2008):

Columns and labels:
[1] = IV pharmacokinetics of Compound 1 and its glucuronides in rats; assay type: in vivo, rat; settings: Sprague Dawley, rat, plasma, Compound 1 2 mg/kg IV
Method: (§1) Two separate IV studies were carried out using two separate lots of animals. IV-A was run on the same lot of animals as the oral gavage study and IV-B was run on the same lot of animals as the intraduodenal and intra-colonic studies.
For the IV dosing solutions (IV), Compound 1 was prepared by addition to DI water containing 20% hydroxypropyl β-cyclodextran by weight.
(§2) For the IV and oral gavage dosing (sampling at jugular and portal vein), young adult male Sprague Dawley rats weighing 250-400 g were purchased from Hilltop Lab Animals Inc. All rat experiments were conducted under approved animal protocols. The rats for the oral gavage dosing were catheterized at Hilltop Lab Animals Inc, had two chronic catheters for sampling: jugular and portal, were housed in cages of Culex™ Automated Blood Sampler (ABS) and blood samples were collected simultaneously via both cannula and were controlled by the Culex™ ABS control software.
(§3) A quantitative method for determining the amount of (6,7-dimethoxy-2,4-dihydro-indeno[1,2-c]pyrazol-3-yl)-(3-fluoro-phenyl)-amine Compound 1 and its major metabolites, glucuronide A (Cpd 1-GluA) and glucuronide B (Cpd 1-GluB) (see Scheme A) in rat plasma was developed using phenacetin as an internal standard. [drawing 1]
(§4) The two glucuronide conjugates were prepared and purified to permit accurate quantification of the levels of intact parent Compound 1 versus Cpd 1-GluA and Cpd 1-GluB. Each standard curve for Compound 1, Cpd 1-GluA, and Cpd 1-GluB generated from rat plasma included ten concentration levels. […] The quantitative procedure for each sample included: sample preparation, HPLC separation and mass spectrometry detection.
(§5) The rat plasma was prepared using protein precipitation techniques. Reference standards and quality control samples in rat plasma for Compound 1 were transferred to a 96 deep-well plate. The precipitation solution contained 100 ng/ml of internal standard in acetonitrile. 300 μl of precipitation solution were added to 100 μl of each standard, quality control and plasma sample. Samples were vortexed for 10 mins, then centrifuged at 4500 RPM for 10 mins. 10 μl of each sample were injected for LC/MS/MS analysis.
(§6) The HPLC column chosen for the bioanalysis was purchased from Thermo Electron (Hypersil BetaBasic C18, 5 cm×2.1 mm). The eluting solvents were composed of Solvent A: 0.1% formic acid in H2O and Solvent B: 0.1% formic acid in acetonitrile. A step gradient was used and flow rate was 300 μl/min. The total run time was 3.2 mins. Solvent B was increased from 35% at 0 min to 75% at 2.1 mins and decreased back to 35% at 2.2 mins. The retention times for Compound 1, phenacetin, Cpd 1-GluA and Cpd 1-GluB were 1.1 min, 0.9 min, 1.3 min, and 1.6 min, respectively.
API3000 with a Turbo Ionspray interface from Applied Biosystems was used for the detection of Compound 1, the internal standard and major metabolites. Electrospray ionization was performed in the positive ion mode heated nebulizer with a temperature of 300° C. LC/MS/MS chromatograms were acquired in MRM (multiple reaction mode). The MRM transitions for Compound 1, the internal standard, Cpd 1-GluA and Cpd 1-GluB were from 326.3 to 190.6, 181.1 to 110.3, 502.2 to 368.3 and 502.2 to 326.4, respectively.
Pharmacokinetic analysis of the plasma concentration data was performed to determine the maximum plasma concentration (Cmax) for the oral dose, and the concentration at zero time (C0; Compound 1 only) by the extrapolation of drug concentrations back to the time of i.v. dosing, the time to maximum plasma concentration (Tmax) following the oral dose, area under the plasma concentration vs. time curve (AUC), terminal half-life (t1/2), plasma clearance (CL/F; Compound 1 only), and volume of distribution at steady state (Vdss; Compound 1 only) for the i.v. dose, using the WinNonlin (Version 3.1, Pharsight, Palo Alto, Calif.) validated computer program.

[2] = Oral gavage pharmacokinetics, jugular and portal vein sampling, first pass metabolism; assay type: in vivo, rat; settings: for AUC: po, 75 mg/kg; for AUC / concentration at 0 h / concentration at 0.08 h / concentration at 0.25 h / concentration at 0.33 h / concentration at 0.5 h / concentration at 0.67 h / concentration at 1 h / concentration at 1.25 h / concentration at 1.5 h / concentration at 2 h / concentration at 3 h / concentration at 4 h / concentration at 6 h / concentration at 12 h / concentration at 24 h / Cmax: rats N=4; for Cmax: read-out: Cmax average ± standard deviation
Method: as §1
For the oral gavage dosing, Compound 1 was prepared in neat PEG-400. For the intraduodenal and intracolonic dosing solutions, Compound 1 was added to neat Tween 80, the mixture was sonicated for thirty minutes at 45° C. until Compound 1 was completely dissolved and then deionized (DI) water was added to form a solution consisting of 20% Tween 80 and 80% DI water by weight.
as §2, §3, §4, §5, §6
API3000 with a Turbo Ionspray interface from Applied Biosystems was used for the detection of Compound 1, the internal standard and major metabolites. Electrospray ionization was performed in the positive ion mode heated nebulizer with a temperature of 300° C. LC/MS/MS chromatograms were acquired in MRM (multiple reaction mode). The MRM transitions for Compound 1, the internal standard, Cpd 1-GluA and Cpd 1-GluB were from 326.3 to 190.6, 181.1 to 110.3, 502.2 to 368.3 and 502.2 to 326.4, respectively. […]

[3] = male, Sprague Dawley, rat, plasma (jugular vein sample), Compound 1 75 mg/kg oral gavage, jugular sample
[4] = male, Sprague Dawley, rat, plasma (portal vein sample), Compound 1 75 mg/kg oral gavage, portal sample
[5] = male, Sprague Dawley, rat, portal vein plasma, Compound 1 75 mg/kg oral gavage, portal sample

COc1cc2c(cc1OC)-c1n[nH]c(N(c3cccc(F)c3)[C@H]3O[C@@H](C(=O)O)[C@H](O)[C@@H](O)[C@@H]3O)c1C2 [Cpd 1-GluA]
AUC ([1]; male rats N=4, read-out: AUC average ± standard deviation): 8210 ng·h/mL
Cmax ([1]; male rats N=4, read-out: Cmax average ± standard deviation): 2970 ng/mL
concentration at 0 h ([1]; male rats N=4, retro orbital sinus, 0 hrs): 0 ng/mL
concentration at 0.08 h ([1]; male rats N=4, retro orbital sinus, 0.08 hrs): 2440 ng/mL
concentration at 0.33 h ([1]; male rats N=4, retro orbital sinus, 0.33 hrs): 2970 ng/mL
concentration at 1 h ([1]; male rats N=4, retro orbital sinus, 1 hr): 1670 ng/mL
concentration at 2 h ([1]; male rats N=4, retro orbital sinus, 2 hrs): 492 ng/mL
concentration at 4 h ([1]; male rats N=4, retro orbital sinus, 4 hrs): 68.6 ng/mL
concentration at 8 h ([1]; male rats N=4, retro orbital sinus, 8 hrs): 369 ng/mL
concentration at 24 h ([1]; male rats N=4, retro orbital sinus, 24 hrs): 18.6 ng/mL
Tmax ([1]; male rats): 18 min
Ratio of metabolite to Compound 1 ([2]; jugular vein, oral gavage): 78
AUC ([2]; male, Sprague Dawley, rat, plasma (jugular vein sample), Compound 1 75 mg/kg oral gavage, jugular sample, read-out: AUC average ± standard deviation 0 to 24 hours): 117 µg·h/mL
AUC ([2]; male, Sprague Dawley, rat, plasma (jugular vein sample), Compound 1 75 mg/kg oral gavage, jugular sample, read-out: AUC average ± standard deviation 0 to infinite hours): 169 µg·h/mL
concentration at 0 h [2, 3]: 2.2 ng/mL
concentration at 0.08 h [2, 3]: 2570 ng/mL
concentration at 0.25 h [2, 3]: 12400 ng/mL
concentration at 0.33 h [2, 3]: 16100 ng/mL
concentration at 0.5 h [2, 3]: 15700 ng/mL
concentration at 0.67 h [2, 3]: 14700 ng/mL
concentration at 1 h [2, 3]: 14300 ng/mL
concentration at 1.25 h [2, 3]: 11700 ng/mL
concentration at 1.5 h [2, 3]: 11700 ng/mL
concentration at 2 h [2, 3]: 11100 ng/mL
concentration at 3 h [2, 3]: 6480 ng/mL
concentration at 4 h [2, 3]: 3750 ng/mL
concentration at 6 h [2, 3]: 4290 ng/mL
concentration at 12 h [2, 3]: 5170 ng/mL
concentration at 24 h [2, 3]: 2470 ng/mL
Cmax [2, 3]: 17600 ng/mL
concentration at 0.67 h [2, 4]: 26000 ng/mL
concentration at 1 h [2, 4]: 11700 ng/mL
concentration at 1.25 h [2, 4]: 15100 ng/mL
concentration at 1.5 h [2, 4]: 12200 ng/mL
concentration at 2 h [2, 4]: 14700 ng/mL
concentration at 3 h [2, 4]: 10700 ng/mL
concentration at 4 h [2, 4]: 7500 ng/mL
concentration at 6 h [2, 4]: 11600 ng/mL
concentration at 12 h [2, 4]: 8000 ng/mL
Tmax ([2]; male, Sprague Dawley, rat, plasma, rats, Compound 1 75 mg/kg oral gavage): 54 min
AUC ([2]; male, Sprague Dawley, rat, portal vein plasma, Compound 1 75 mg/kg oral gavage, portal sample, read-out: AUC average ± standard deviation 0 to 24 hours): 190 µg·h/mL
AUC ([2]; male, Sprague Dawley, rat, portal vein plasma, Compound 1 75 mg/kg oral gavage, portal sample, read-out: AUC average ± standard deviation 0 to infinite hours): 271 µg·h/mL
concentration at 0 h [2, 5]: 1.3 ng/mL
concentration at 0.08 h [2, 5]: 9460 ng/mL
concentration at 0.25 h [2, 5]: 18900 ng/mL
concentration at 0.33 h [2, 5]: 22400 ng/mL
concentration at 0.5 h [2, 5]: 17400 ng/mL
concentration at 24 h [2, 5]: 5070 ng/mL
Cmax [2, 5]: 29200 ng/mL
Systemic exposure of Glu A relative to Glu B ([2]; oral gavage dosing): ~66 times
Mean ratio of metabolite to Compound 1 ([2]; portal system, oral gavage): 20
